Experimental data from patent US6265443A, “Method for treating neuronal injury with carboxyfullerene” (priority 1997, dated 2001).
Entries after “also recorded” stand apart in the source; their conditions may differ.

Experiments:
[1] = native C60; toluene or benzene; cited from earlier work
[2] = EPR spin-trap (DMPO) hydroxyl radical scavenging; settings: for scavenging of OH: EPR
Experimental: (§1) FIGS. 9A and 9B show the EPR spectra of OH (from 100 μM H2 O2 in Fe^2+ by the Fenton reaction) and O2 - (from xanthine+xanthine oxidase) radicals with 100 mM 5,5-dimethyl-1-pyrolline-N-oxide (DMPO) as the spin-trapping agent. Hydroxyl radical (FIG. 9A): OH in the presence of […] alone (top), in the presence of 4 mM O-3a (middle), or in the presence of 4 mM R-3b (bottom). Superoxide radical (right): O2 - in DMPO alone (top), in the presence of 400 mM O-3a (middle), in the presence of 400 mM R-3b (bottom). The arrow designates a spurious signal due to an unknown radical in the cavity. The sample was analyzed in a quartz flat cell (60×10×0.25 mm) in a Bruker 200, X-band EPR spectrometer. Settings were power=1.6 mW, modulation=1 G, field modulation=100 Hz, R.G.=3.2×10^5.

[3] = EPR spin-trap (DMPO) superoxide radical scavenging, xanthine + xanthine oxidase; settings: xanthine oxidase with xanthine
Experimental: as §1

cortical neurons [4] = assay: NMDA-induced excitotoxic neuronal death in neuron-astrocyte co-cultures (LDH efflux); assay type: cell-based, mouse
Experimental: (§2) Mouse embryos (gestational day 15) are removed from pregnant anesthetized Swiss-Webster mice, and the neocortex is dissected away from other brain structures. After brief incubation in trypsin, the cells are dissociated by trituration, and the cell suspension is then diluted into plating medium and plated onto previously-prepared 24-well Plastek culture plates coated with poly-D-lysine/laminin (for neuronal cultures) or onto an existing bed of astrocytes (for co-cultures). After 1-2days in vitro, a partial exchange with glial conditioned medium is made for "pure" neuronal cultures, and cytosine arabinoside (3 μM) is added immediately after feeding to inhibit glial proliferation. Mixed cultures are fed biweekly with growth medium until 11-12 days in vitro, when they are fed with serum-free MS containing 2 mM L-glutamine. Unless otherwise stated, cells were used at 14-16 days in vitro.
Carboxyfullerene (3-300 (M) was co-applied to neuron-astrocyte co-cultures described above with NMDA for assessment of neuroprotection. Brief exposure to NMDA in the presence of the carboxyfullerene was carried out by triple exchange of the medium with HBBSS, followed by addition of 50 μM-500 μM NMDA plus carboxyfullerene for 10 minutes. The NMDA and carboxyfullerene were removed by quadruple exchange of the medium with MS, and the cultures were placed in the humidified, CO2 (5%), 37° C. incubator for 24 hours, when the extent of injury was assessed.

cortical neurons [5] = assay: AMPA-induced excitotoxic neuronal death in neuron-astrocyte co-cultures (LDH efflux); assay type: cell-based, mouse
Experimental: as §2

[6] = Spin-label/EPR membrane parameters (5- or 16-doxyl ketostearic acid in brain lipids); parameters: species or system mouse; settings: 16-doxylstearic acid; control 0.8
Experimental: Values are mean±SEM, n=8-12 per condition. I=p<0.05 vs. untreated injury condition, using ANOVA followed by Student-Newman-Keuls test for multiple comparisons. **=p<0.05 R-3b different than O-3a. […] The spin labels were added to lipids extracted from adult mouse brain at a ratio of 1:100. EPR settings were the same as those listed in the legend for FIGS. 9A and 9B.
^a Order parameter, S = a(T_.cent. - T .cent.)/(T - T ),
^b Correlation time, tc = 6.5 × 10^-10 wo [(ho
^c Lipid/aqueous partition factor, f = hL /hA, where hL

[7] = system: endothelial cell cultures; assay: Protection in endothelial cell cultures; assay type: cell-based
hepatocytes = assay: Protection in hepatocytes; assay type: cell-based
[8] = EPR free radical scavenging (hydroxyl and superoxide); settings: for anti-oxidant potency, isomers compared: EPR analysis
Experimental: as §1, with “The arrow designates a spurious signal due to an unknown radical in the cavity.” left out

cortical neurons [9] = assay: Neuroprotection, general statement; assay type: cell-based, mouse
Experimental: as §2

Solubility = assay type: physicochemical
Excerpt: Solutions of carboxyfullerene were translucent brown.

NMDA receptor = assay: NMDA-stimulated 45Ca2+ accumulation in cultured neurons; assay type: cell-based, mouse; settings: up to 300 (M [µM], with NMDA 300 (M, 10 min
Experimental: as §2, with “Mouse neocortical cultures were prepared as neuron-astrocyte co-cultures (approximately 50% astrocytes) (Rose et al., 1992) or as neuronal cultures (<2% astrocytes). Mouse” for “Mouse”
To verify that protection against NMDA-induced neuronal cell injury was not due to a reduction in NMDA-induced calcium influx, ^45 Ca^2+ tracer studies were performed. […]

cortical neurons [10] = assay: Serum deprivation apoptotic neuronal death (trypan blue); assay type: cell-based, mouse
Experimental: as §2

FALS mice = assay: Survival in transgenic model of ALS (FALS mice, Gurney G1 strain); assay type: in vivo, mouse; settings: 15 mg/kg/day, intraperitoneal mini-osmotic pumps
Experimental: The G1 line, with 18 copies and 4 times the SOD activity of wildtype animals, develops motor neuron death by 3-4 months of age, with hindlimb weakness, impaired grooming, and thinning along their flanks. Affected mice were dead before 5 months of age (Gurney et al., 1994).
C60 (C(COOH)2)3 was used to treat FALS mice (Gurney G1 strain) to determine its ability to treat FALS. At 10 weeks of age, Alzet mini-osmotic pumps (28 day, 6 (l/day, 15 mg/kg/day) containing C60 (C(COOH)2)3 (the mixed isomers, which consist of >90% O-3a) or saline were implanted intraperitoneally. The pumps were replaced at 14 weeks of age. Videotaped assessments of open field walking were performed and scored using the Bresnahan scale for spinal cord injury (Basso et al, 1995). As reported by Gurney and colleagues, these animals develop motor symptoms by approximately 90 days of age, and are moribund between 125 and 145 days of age.

wild-type animals = settings: mouse, in vivo, 15 mg/kg/day
Excerpt: The 8 day increase in survival reached statistical significance (p=0.041), by t-test. There was no difference in survival for FALS mice who received no pumps (123 days, n=4) or those treated with saline-filled pumps (125 days, n=6).

c12c3c4c5c1c1c6c7c2c2c8c3c3c9c4c4c%10c5c5c1c1c6c6c%11c7c2c2c7c8c3c3c8c9c4c4c9c%10c5c5c1c1c6c6c%11c2c2c7c3c3c8c4c4c9c5c1c1c6c2c3c41 [C60, Buckminsterfullerene]
solubility (solvents) [1]: soluble only in a limited number of solvents, such as toluene or benzene

O=C(O)C1(C(=O)O)C23c4c5c6c7c8c4-c4c2c2c9c%10c%11c%12c(c-5c5c%13c%14c%15c%16c%17c(c-7c7c%18c%19c%20c%21c(c4C%204C(C(=O)O)(C(=O)O)C874)c2c2c9c4c%11c7c(c%13%12)c%14c8c%16c9c(c%18%17)c%19c%11c%21c2c2c4c7c8c9c%112)C%152C(C(=O)O)(C(=O)O)C652)C%1013 (stereo not shown) [O-3a]
OH signal (DMPO-OH spin adduct) ([2]; 150 (M [µM], H2O2, 15 minute period): elimination of this OH signal
scavenging of OH [2]: extremely potent scavengers of OH
superoxide radical signal (DMPO-OOH) [3]: eliminated the superoxide radical signal
protection from NMDA injury vs R-3b (cortical neurons [4]; FIG. 10A, n=8-12 per condition): slightly better protection
protection against AMPA-induced neuronal death vs R-3b (cortical neurons [5]; FIG. 10B, n=8-12 per condition): substantially better protection
Lipid/aqueous partition factors [6]: 1.0 ± 0.2
protection from injury in endothelial cell cultures vs R-3b [7]: enhanced protection over R-3b
protection from injury in hepatocytes vs R-3b (hepatocytes): enhanced protection over R-3b
anti-oxidant potency, isomers compared [8]: equipotent anti-oxidants

O=C(O)C1(C(=O)O)C23c4c5c6c7c8c9c%10c%11c%12c%13c%14c%15c(c6c6c4c4c%16c%17c%18c(c%19c%20c2c5c8c2c%20c5c%19c8c%19c%20c(c%21c%12c%12c%22c%23c(c(c%188)C%198C(C(=O)O)(C(=O)O)C%21%228)c%17c8c4c6c%15c(c%12%14)c%238)c%11c(c92)c%205)C%1613)C71C(C(=O)O)(C(=O)O)C%13%101 (stereo not shown) [R-3b]
scavenging of OH [2]: extremely potent scavengers of OH
superoxide radical signal (DMPO-OOH) [3]: eliminated the superoxide radical signal
Lipid/aqueous partition factors [6]: 0.6
anti-oxidant potency, isomers compared [8]: equipotent anti-oxidants
neuroprotection (cortical neurons [9]): effective neuroprotectant

O=C(O)C1(C(=O)O)C23c4c5c6c7c8c9c(c%10c%11c2c2c4c4c%12c5c5c6c6c8c8c%13c9c9c%10c%10c%11c%11c2c2c4c4c%12c%12c5c5c6c8c6c8c%13c9c9c%10c%10c%11c2c2c4c4c%12c5c6c5c8c9c%10c2c45)C713 [dicarboxy fullerene]
solubility in aqueous solution vs hexacarboxy derivative (Solubility; aqueous solution): less soluble
neuroprotective efficacy vs hexacarboxy derivative (cortical neurons [9]): less effective neuroprotectants

C60 (C(COOH)2)3
protection from NMDA, some experiments (cortical neurons [4]; 300 (M [µM]): nearly complete protection
reduction of neuronal death from NMDA, all experiments (cortical neurons [4]; 300 (M [µM], 24 h after 10 min NMDA, 300 µM): at least 60%
protection against NMDA excitotoxic injury (cortical neurons [4]; cortical neurons): protected cortical neurons against excitotoxic injury; also recorded: robust neuroprotection
reduction in neuronal cell death (NMDA), pooled data (cortical neurons [4]; pooled data from three experiments, FIG. 5): 75%
reduction of neuronal cell death from AMPA (cortical neurons [5]; 100 (M [µM], MK-801 10 (M included), 24 h, data from 4 experiments pooled, 100 µM): > 80%
protection against AMPA excitotoxic injury (cortical neurons [5]; cortical neurons): protected cortical neurons against excitotoxic injury; also recorded: robust neuroprotection
45Ca2+ accumulation (NMDA receptor): not affected
reduction in neuronal death, serum deprivation (cortical neurons [10]; 10 (M [µM], 48 hours, trypan blue, 10 µM): 50%
apoptotic neuronal death due to serum deprivation (cortical neurons [10]; co-application): attenuated
onset of symptoms (FALS mice): delay in onset of symptoms
delay in death (FALS mice; p=0.041 by t-test): 8 ± 2.2 days
body weight vs untreated littermates (wild-type animals): weights were similar
solubility in water (Solubility; water): at least 50 mM
scavenging ability towards OH vs potency for O2- radicals ([8]; OH over O2-): 10 fold
